This passage reports Ki results from US10995091B2 (Proximagen, LLC, priority 2010, dated 2021).

SMILES strings stand for the structures.

This assay deals with T1, Human CXCR4 transfected HEK293 cells (Homo sapiens, UniProt P61073).
T1 construct: expressed in transfected cells; host or cells: HEK293
T1 sequence (P61073 whole entry): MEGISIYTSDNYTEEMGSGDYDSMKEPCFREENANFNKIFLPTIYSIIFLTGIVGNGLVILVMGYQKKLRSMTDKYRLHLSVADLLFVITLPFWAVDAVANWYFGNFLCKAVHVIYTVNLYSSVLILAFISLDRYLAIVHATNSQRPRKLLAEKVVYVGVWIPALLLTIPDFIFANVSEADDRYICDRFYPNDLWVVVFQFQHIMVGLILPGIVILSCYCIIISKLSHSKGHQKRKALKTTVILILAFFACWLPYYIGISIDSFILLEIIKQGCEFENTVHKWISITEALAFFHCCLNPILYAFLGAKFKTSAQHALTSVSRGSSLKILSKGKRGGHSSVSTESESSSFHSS
As to the kind of experiment: CXCR4 functional calcium assay (calcium flux FLIPR, antagonism of SDF1 response). Type of assay: cell-based. The settings on record: CXCR4 functional activity, antagonism of SDF1 (EC50 concentration), read-out: CXCR4 fKi. A digest of the protocol: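 HEK293 cells stably transfected with human CXCR4 were loaded with 2 μM Fluo-4 AM in HBSS containing 2.5 mM probenecid, 0.1% BSA and 10 mM HEPES at pH 7.4 and 37° C. Compound was added first, then SDF1 at its EC50 concentration, and intracellular calcium fluorescence was followed on a FLIPR. Antagonist dose-response curves were fitted.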
For orientation: Calcium assays in cells follow changes in intracellular calcium, usually with a dye or a luminescent sensor.
`CC(C)N1CCN(C)[C@H](CN2CCCN(c3cccc(C(=O)Nc4ccncc4)n3)CC2)C1` [Example 202, 6-(4-{[(2R)-1-Methyl-4-(propan-2-yl)piperazin-2-yl]methyl}-1,4-diazepan-1-yl)-N-(pyridin-4-yl)pyridine-2-carboxamide]: the Ki fell in the range of 500 to 1000 nM.
As for `[2H]C1([2H])CCN(c2cccc(C(=O)Nc3ccncc3)n2)CCN1C1CCN(Cc2ccc(F)cc2Cl)CC1` [Example 203, 6-(4-{1-[(2-Chloro-4-fluorophenyl)methyl]piperidin-4-yl}-5,5-dihydrogenio-1,4-diazepan-1-yl)-N-(pyridin-4-yl)pyridine-2-carboxamide], the Ki was under 20 nM.
For `[2H]C1([2H])CCN(c2cccc(C(=O)Nc3ccncc3)n2)CCN1C1CCN(Cc2ccccc2Cl)CC1` [Example 204, 6-(4-{1-[(2-Chlorophenyl)methyl]piperidin-4-yl}-5,5-dihydrogenio-1,4-diazepan-1-yl)-N-(pyridin-4-yl)pyridine-2-carboxamide], the Ki was under 20 nM.
For `[2H]C1([2H])CCN(C2CCN(Cc3ccc(F)cc3Cl)CC2)CCN1c1cccc(C(=O)Nc2ccncc2)n1` [Example 205, 6-(4-{1-[(2-Chloro-4-fluorophenyl)methyl]piperidin-4-yl}-7,7-dihydrogenio-1,4-diazepan-1-yl)-N-(pyridin-4-yl)pyridine-2-carboxamide], the Ki is under 20 nM.
Regarding `[2H]C1([2H])CCN(c2cccc(C(=O)Nc3ccncc3)n2)CC(C)N1C1CCN(Cc2ccccc2Cl)CC1` (stereo not shown) [Example 206, 6-(4-{1-[(2-Chlorophenyl)methyl]piperidin-4-yl}-5,5-dihydrogenio-3-methyl-1,4-diazepan-1-yl)-N-(pyridin-4-yl)pyridine-2-carboxamide], the Ki is under 20 nM.
Consider `[2H]C1([2H])CCN(c2cccc(C(=O)Nc3ccncc3)n2)CC(C)N1C1CCN(Cc2ccc(F)cc2Cl)CC1` (stereo not shown) [Example 207, 6-(4-{1-[(2-Chloro-4-fluorophenyl)methyl]piperidin-4-yl}-5,5-dihydrogenio-3-methyl-1,4-diazepan-1-yl)-N-(pyridin-4-yl)pyridine-2-carboxamide], for which the Ki was under 20 nM.
Turning to `O=C(Nc1ccncc1)c1cccc(N2CC3CCC(C2)N(C2CCN(Cc4ccccc4Cl)CC2)C3)n1` (stereo not shown) [Example 208, 6-(6-{1-[(2-Chlorophenyl)methyl]piperidin-4-yl}-3,6-diazabicyclo[3.2.2]nonan-3-yl)-N-(pyridin-4-yl)pyridine-2-carboxamide], the Ki lay within 100 to 500 nM.
The value for `O=C(Nc1ccncc1)c1cccc(N2CC3CCC(C2)N(C2CCN(Cc4ccc(F)cc4Cl)CC2)C3)n1` (stereo not shown) [Example 209, 6-(6-{1-[(2-Chloro-4-fluorophenyl)methyl]piperidin-4-yl}-3,6-diazabicyclo[3.2.2]nonan-3-yl)-N-(pyridin-4-yl)pyridine-2-carboxamide] was 100 to 500 nM; that for `CC(C)N1CCC(N2CCCN(c3cccc(C(=O)Nc4ccncc4)n3)CC2)C(F)C1` (stereo not shown) [Example 210, 6-{4-[3-Fluoro-1-(propan-2-yl)piperidin-4-yl]-1,4-diazepan-1-yl}-N-(pyridin-4-yl)pyridine-2-carboxamide] was under 20 nM.
On to `[2H]C1([2H])CCN(C2CCN(C(C)C)CC2F)CCN1c1cccc(C(=O)Nc2ccncc2)n1` (stereo not shown) [Example 211, 6-{4-[3-Fluoro-1-(propan-2-yl)piperidin-4-yl]-7,7-dihydrogenio-1,4-diazepan-1-yl}-N-(pyridin-4-yl)pyridine-2-carboxamide], for which the Ki was 20 to 100 nM.
With `CC(C)N1CCC(N2CCCN(c3cccc(-c4ncc(C5CC5)[nH]4)n3)CC2)C(F)C1` (stereo not shown) [Example 212, 1-[6-(4-Cyclopropyl-1H-imidazol-2-yl)pyridin-2-yl]-4-[3-fluoro-1-(propan-2-yl)piperidin-4-yl]-1,4-diazepane], the Ki was 100 to 500 nM.
For `Cc1nc(-c2cccc(N3CCCN(C4CCN(C(C)C)CC4F)CC3)n2)[nH]c1C1CC1` (stereo not shown) [Example 213, 1-[6-(4-Cyclopropyl-5-methyl-1H-imidazol-2-yl)pyridin-2-yl]-4-[3-fluoro-1-(propan-2-yl)piperidin-4-yl]-1,4-diazepane], the Ki was in the range of 20 to 100 nM.
Turning to `Cc1nc(-c2cccc(N3CCCN(C4CCN(C5CCCC5)CC4F)CC3)n2)[nH]c1C1CC1` (stereo not shown) [Example 214, 1-(1-Cyclopentyl-3-fluoropiperidin-4-yl)-4-[6-(4-cyclopropyl-5-methyl-1H-imidazol-2-yl)pyridin-2-yl]-1,4-diazepane], the Ki is 100 to 500 nM.
With `CC(C)N1CCC(N2CCCN(c3cccc(C(=O)NCc4cccnc4)n3)CC2)CC1C` (stereo not shown) [Example 215, 6-{4-[2-Methyl-1-(propan-2-yl)piperidin-4-yl]-1,4-diazepan-1-yl}-N-(pyridin-3-ylmethyl)pyridine-2-carboxamide], the Ki lay in the range of 20 to 100 nM.
Regarding `CC(C)N1CC[C@@H](N2CCCN(c3cccc(C(=O)NCC4CC4)n3)CC2)[C@H](O)C1` [Example 216, N-(Cyclopropylmethyl)-6-{4-[(3R)-3-hydroxy-1-(propan-2-yl)piperidin-4-yl]-1,4-diazepan-1-yl}pyridine-2-carboxamide], the Ki is 100 to 500 nM.
Consider `CC(C)N1CCC(N2C3CCCC2CN(c2cccc(C(=O)NCC4CC4)n2)CC3)CC1` (stereo not shown) [Example 217, N-(Cyclopropylmethyl)-6-{10-[1-(propan-2-yl)piperidin-4-yl]-3,10-diazabicyclo[4.3.1]decan-3-yl}pyridine-2-carboxamide], for which the Ki lay in the range of 100 to 500 nM.
Next, `O=C(Nc1ccncc1)c1cccc(N2CCC3CCCC(C2)N3C2CCN(Cc3ccccc3Cl)CC2)n1` (stereo not shown) [Example 218, 6-(10-{1-[(2-Chlorophenyl)methyl]piperidin-4-yl}-3,10-diazabicyclo[4.3.1]decan-3-yl)-N-(pyridin-4-yl)pyridine-2-carboxamide]: 100 to 500 nM; `CCCC(=O)c1cccc(N2CCCN(C3CCN(C(C)C)CC3)CC2)n1` [Example 219, 1-(6-{4-[1-(Propan-2-yl)piperidin-4-yl]-1,4-diazepan-1-yl}pyridin-2-yl)butan-1-one]: 100 to 500 nM.
`CC(C)N1CCC(N2CCCN(c3cccc(C(=O)Cc4ccccc4)n3)CC2)CC1` [Example 220, 2-Phenyl-1-(6-{4-[1-(propan-2-yl)piperidin-4-yl]-1,4-diazepan-1-yl}pyridin-2-yl)ethan-1-one]: the Ki was in the range of 20 to 100 nM.
Take `CC(C)N1CCCC(N2CCC(Oc3cccc(C(=O)Nc4ccncc4)n3)CC2)CC1` (stereo not shown) [Example 221, 6-({1-[1-(Propan-2-yl)azepan-4-yl]piperidin-4-yl}oxy)-N-(pyridin-4-yl)pyridine-2-carboxamide]: the Ki lay within 100 to 500 nM.
For `CC(C)N1CCC(N2CCCC(Nc3cccc(C(=O)Nc4ccncc4)n3)C2)CC1` (stereo not shown) [Example 222, 6-({1-[1-(Propan-2-yl)piperidin-4-yl]piperidin-3-yl}amino)-N-(pyridin-4-yl)pyridine-2-carboxamide], the Ki lay in the range of 500 to 1000 nM.
Consider `CC(C)N1CCC(CN[C@@H]2CCN(c3cccc(-c4ncc(C5CC5)[nH]4)n3)C2)CC1` [Example 223, (3R)-1-[6-(4-Cyclopropyl-1H-imidazol-2-yl)pyridin-2-yl]-N-{[1-(propan-2-yl)piperidin-4-yl]methyl}pyrrolidin-3-amine], for which the Ki lay within 500 to 1000 nM.
As to `Cc1nc(-c2cccc(N3CC[C@@H](NC[C@@H]4CCN(C5CCCC5)C4)C3)n2)[nH]c1C1CC1` [Example 224, (3R)—N-{[(3S)-1-Cyclopentylpyrrolidin-3-yl]methyl}-1-[6-(4-cyclopropyl-5-methyl-1H-imidazol-2-yl)pyridin-2-yl]pyrrolidin-3-amine], the Ki is under 20 nM.
Next, `Cc1nc(-c2cccc(N3CC[C@@H](NC[C@H]4CCN(C5CCCC5)C4)C3)n2)[nH]c1C1CC1` [Example 225, (3R)—N-{[(3R)-1-Cyclopentylpyrrolidin-3-yl]methyl}-1-[6-(4-cyclopropyl-5-methyl-1H-imidazol-2-yl)pyridin-2-yl]pyrrolidin-3-amine]: under 20 nM.
Next, `O=C(Nc1ccncc1)c1cccc(N2CC[C@@H](NC[C@@H]3CCN(C4CCCC4)C3)C2)n1` [Example 226, 6-[(3R)-3-({[(3S)-1-Cyclopentylpyrrolidin-3-yl]methyl}amino)pyrrolidin-1-yl]-N-(pyridin-4-yl)pyridine-2-carboxamide]: under 20 nM.
Consider `O=C(Nc1ccncc1)c1cccc(N2CC[C@@H](NC[C@H]3CCN(C4CCCC4)C3)C2)n1` [Example 227, 6-[(3R)-3-({[(3R)-1-Cyclopentylpyrrolidin-3-yl]methyl}amino)pyrrolidin-1-yl]-N-(pyridin-4-yl)pyridine-2-carboxamide], for which the Ki is under 20 nM.
`O=C(Nc1ccncc1)c1cccc(N2CC[C@@H](NCC3CCN(C4CCCC4)CC3)C2)n1` [Example 228, 6-[(3R)-3-{[(1-Cyclopentylpiperidin-4-yl)methyl]amino}pyrrolidin-1-yl]-N-(pyridin-4-yl)pyridine-2-carboxamide]: the Ki was under 20 nM.
The value for `c1cc(NCCNCC2CCN(C3CCCC3)C2)nc(-c2ncc(C3CC3)[nH]2)c1` (stereo not shown) [Example 229, [(1-Cyclopentylpyrrolidin-3-yl)methyl](2-{[6-(5-cyclopropyl-1H-imidazol-2-yl)pyridin-2-yl]amino}ethyl)amine] was 100 to 500 nM; that for `c1cc(NCCNC2CCCN(C3CCCC3)C2)nc(-c2ncc(C3CC3)[nH]2)c1` (stereo not shown) [Example 230, 1-Cyclopentyl-N-(2-{[6-(5-cyclopropyl-1H-imidazol-2-yl)pyridin-2-yl]amino}ethyl)piperidin-3-amine] was 100 to 500 nM.
For the compound `Cc1nc(-c2cccc(NCCNC3CCCN(C4CCCC4)C3)n2)[nH]c1C1CC1` (stereo not shown) [Example 231, N-{2-[(1-Cyclopentylpiperidin-3-yl)amino]ethyl}-6-(5-cyclopropyl-4-methyl-1H-imidazol-2-yl)pyridin-2-amine], the Ki lay within 100 to 500 nM.
With `Cc1nc(-c2cccc(NCCNC3CCN(C4CCCC4)CC3)n2)[nH]c1C1CC1` [Example 232, 1-Cyclopentyl-N-(2-{[6-(5-cyclopropyl-4-methyl-1H-imidazol-2-yl)pyridin-2-yl]amino}ethyl)piperidin-4-amine], the Ki is 100 to 500 nM.
